Experimental data from article PMC3870094 (Environmental science & technology, 2013).
“And” between values parts separate entries of the source, which are not always exact repeats. Identical values can stand only once.

Experiments:
[1] = target: T1, Rat CYP2B1 (Rattus norvegicus, UniProt P00176); details: for Depletion of OH-PCB after 60 min: rat CYP2B1, OH-PCB as substrate; for EF of OH-PCB substrate after biotransformation: rat CYP2B1, racemic OH-PCB as substrate; for Average EF of 5-OH-PCB metabolite: formed from parent PCB by rat CYP2B1, 60 min, two enantioselective columns; for Biotransformation activity of atropisomer compared with antipode: Fig. 1A1; for Formation of 4,5-DiOH-PCB from PCB: Fig. 1B1; for 4-OH-PCB metabolites detected by GC-ECD: not confirmed by GC-MS; for Depletion of PCB after 60 min incubation: rat CYP2B1, 1000 ng/mL PCB
T1 sequence (P00176 1-491): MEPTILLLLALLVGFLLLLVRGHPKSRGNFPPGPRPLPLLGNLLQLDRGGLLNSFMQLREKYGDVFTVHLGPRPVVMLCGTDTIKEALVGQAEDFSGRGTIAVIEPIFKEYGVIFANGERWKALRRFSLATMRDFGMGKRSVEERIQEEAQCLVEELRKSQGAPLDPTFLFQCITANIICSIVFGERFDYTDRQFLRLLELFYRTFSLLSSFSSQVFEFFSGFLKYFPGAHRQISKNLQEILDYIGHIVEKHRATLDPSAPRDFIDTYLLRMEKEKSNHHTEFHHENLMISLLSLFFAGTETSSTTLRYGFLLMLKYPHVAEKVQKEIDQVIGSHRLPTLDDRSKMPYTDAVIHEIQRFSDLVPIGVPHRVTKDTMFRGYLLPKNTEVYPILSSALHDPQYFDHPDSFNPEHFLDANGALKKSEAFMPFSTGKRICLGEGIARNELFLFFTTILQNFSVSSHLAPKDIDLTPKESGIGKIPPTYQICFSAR

[2] = target: T1, Rat CYP2B1; assay type: in vitro ADME; details: for Formation of metabolite with increases in initial (+)-PCB 136 concentration: 500 ng (−)-PCB 136 as major substrate
[3] = cited from earlier work; for EF of OH-PCB 95 in the liver: female C57Bl/6 mice
[4] = tested on: rat liver microsomes; details: cited from earlier work
[5] = Sprague-Dawley rats, intraperitoneal injection of PCB 136; cited from earlier work
[6] = cited from earlier work

SMILES: Oc1c(O)c(Cl)c(-c2cc(Cl)ccc2Cl)c(Cl)c1Cl [4,5-95, 3,4-dihydroxy −2,2',5,5',6-pentachlorobiphenyl]
- EF of 4,5-95 formed ([1]; rat CYP2B1, 4-95 incubation, 60 min): 0.53

SMILES: Oc1c(O)c(Cl)c(-c2c(Cl)ccc(Cl)c2Cl)c(Cl)c1Cl [4,5-136, 3,4-dihydroxy −2,2',3',5,6,6'-hexachlorobiphenyl]
- Formation of metabolite with increases in initial (+)-PCB 136 concentration ([2]; 60 min): significantly decreased

SMILES: Oc1cc(Cl)c(-c2cc(Cl)ccc2Cl)c(Cl)c1Cl [4-95, 2,2',3,5',6-pentachlorobiphenyl-4-ol]
- Depletion of OH-PCB after 60 min ([1]; 60 min): 40%
- EF of OH-PCB substrate after biotransformation ([1]; 60 min): 0.62
- EF of OH-PCB 95 in the liver [3]: about 0.20

SMILES: Oc1cc(Cl)c(-c2c(Cl)ccc(Cl)c2Cl)c(Cl)c1Cl [4-136, 2,2',3,3',6,6'-hexachlorobiphenyl-4-ol]
- Formation of metabolite with increases in initial (−)-PCB 136 concentration ([2]; 500 ng (+)-PCB 136 as major substrate, 60 min): significant increase
- Formation of metabolite with increases in initial (+)-PCB 136 concentration ([2]; 60 min): significantly decreased

SMILES: Oc1cc(Cl)c(Cl)c(-c2ccc(Cl)cc2Cl)c1Cl [5-91, 2,2',3,4',6-pentachlorobiphenyl-5-ol]
- Average EF of 5-OH-PCB metabolite [1]: 0.17
- EF of 5-OH-PCB from incubation of parent PCB with rat liver microsomes [4]: 0.54

SMILES: Oc1cc(Cl)c(Cl)c(-c2cc(Cl)ccc2Cl)c1Cl [5-95, 2,2',3,5',6-pentachlorobiphenyl-5-ol]
- Average EF of 5-OH-PCB metabolite [1]: 0.20 and ~ 0.20
- Biotransformation activity of 5-95 compared with 4-95 ([1]; rat CYP2B1, 60 min, Fig. 2A1): significantly greater biotransformation activity
- Depletion of OH-PCB after 60 min ([1]; 60 min): 64%
- EF of OH-PCB substrate after biotransformation ([1]; 60 min): 0.46
- EF of 5-OH-PCB from incubation of parent PCB with rat liver microsomes [4]: 0.36
- EF of OH-PCB 95 in the liver [3]: ~0.65

SMILES: Oc1cc(Cl)c(Cl)c(-c2c(Cl)ccc(Cl)c2Cl)c1Cl [5-136, 2,2',3,3',6,6'-hexachlorobiphenyl-5-ol]
- Average EF of 5-OH-PCB metabolite [1]: 0.77
- EF of 5-OH-PCB from incubation of parent PCB with rat liver microsomes [4]: 0.70
- EF of 5-136 in livers [5]: ≈ 0.4
- Formation of metabolite with increases in initial (+)-PCB 136 concentration ([2]; 60 min): not influenced

SMILES: Oc1cc(Cl)c(Cl)c(-c2cc(Cl)c(Cl)cc2Cl)c1Cl [5-149, 2,2',4',5,5',6-hexachlorobiphenyl-3-ol]
- Average EF of 5-OH-PCB metabolite [1]: 0.41
- EF of 5-OH-PCB from incubation of parent PCB with rat liver microsomes [4]: 0.66

SMILES: Oc1cc(Cl)c(Cl)c(-c2ccc(Cl)c(Cl)c2Cl)c1Cl [5’-132, 2,2',3,3',4',6-hexachlorobiphenyl-5-ol]
- Average EF of 5-OH-PCB metabolite [1]: 0.85
- EF of 5-OH-PCB from incubation of parent PCB with rat liver microsomes [4]: 0.30

SMILES: Clc1ccc(Cl)c(-c2c(Cl)ccc(Cl)c2Cl)c1Cl [(+)-PCB 136]
- Biotransformation activity of atropisomer compared with antipode ([1]; rat CYP2B1, 60 min): significantly higher than their respective antipodes
- Biotransformation activity of (+)-PCB 136 in the presence of (−)-PCB 136 ([2]; 500 ng (+)-PCB 136, 0-500 ng/mL (−)-PCB 136, 60 min): not significantly affected

SMILES: Clc1ccc(-c2c(Cl)ccc(Cl)c2Cl)c(Cl)c1Cl [(−)-132]
- Biotransformation activity of atropisomer compared with antipode ([1]; rat CYP2B1, 60 min): significantly higher than their respective antipodes

SMILES: Clc1ccc(Cl)c(-c2c(Cl)ccc(Cl)c2Cl)c1Cl [(−)-PCB 136]
- 5-136 atropisomer formed in pure atropisomer incubation ([2]; pure (−)-PCB 136 incubations, Fig. 4A2): E1-5-136 was the only metabolite

SMILES: Clc1ccc(-c2c(Cl)ccc(Cl)c2Cl)c(Cl)c1 [E1-91]
- Biotransformation activity of atropisomer compared with antipode ([1]; rat CYP2B1, 60 min): significantly higher than their respective antipodes

SMILES: Clc1ccc(Cl)c(-c2c(Cl)ccc(Cl)c2Cl)c1 [E2-95]
- Biotransformation activity of atropisomer compared with antipode ([1]; rat CYP2B1, 60 min): significantly higher than their respective antipodes

SMILES: Clc1ccc(-c2c(Cl)ccc(Cl)c2Cl)c(Cl)c1 [PCB 91, 2,2',3,4',6-pentachlorobiphenyl]
- Formation of 4,5-DiOH-PCB from PCB ([1]; rat CYP2B1, 60 min): minor metabolites
- 4-OH-PCB metabolites detected by GC-ECD ([1]; rat CYP2B1, 60 min): minor products
- Yield of 5-OH-PCB metabolite in rat liver microsomal studies [4]: 20%

SMILES: Clc1ccc(Cl)c(-c2c(Cl)ccc(Cl)c2Cl)c1 [PCB 95, 2,2',3,5',6-pentachlorobiphenyl]
- 4-OH-PCB metabolites detected by GC-ECD ([1]; rat CYP2B1, 60 min): minor products
- Yield of 5-OH-PCB metabolite in rat liver microsomal studies [4]: 8.8%
- EF of PCB in vivo in rats [6]: > 0.5

SMILES: Clc1ccc(-c2c(Cl)ccc(Cl)c2Cl)c(Cl)c1Cl [PCB 132, 2,2',3,3',4,6'-hexachlorobiphenyl]
- Depletion of PCB after 60 min incubation ([1]; 60 min): 11%
- Yield of 5-OH-PCB metabolite in rat liver microsomal studies [4]: 16%

SMILES: Clc1ccc(Cl)c(-c2c(Cl)ccc(Cl)c2Cl)c1Cl [PCB 136, 2,2',3,3',6,6'-hexachlorobiphenyl]
- Depletion of PCB after 60 min incubation ([1]; 60 min): 21%
- Formation of 4,5-DiOH-PCB from PCB ([1]; rat CYP2B1, 60 min): minor metabolites
- 4-OH-PCB metabolites detected by GC-ECD ([1]; rat CYP2B1, 60 min): minor products
- EF of PCB after 30 min microsomal incubation ([4]; 30 min): 0.40
- Yield of 5-OH-PCB metabolite in rat liver microsomal studies [4]: 22%
- EF of PCB in mice tissues after oral administration ([3]; C57Bl/6 female mice tissues, oral administration): ~0.7

SMILES: Clc1cc(Cl)c(-c2c(Cl)ccc(Cl)c2Cl)cc1Cl [PCB 149, 2,2',3,4',5',6-hexachlorobiphenyl]
- Depletion of PCB after 60 min incubation ([1]; 60 min): 4%
- Stereoselectivity of biotransformation ([1]; rat CYP2B1, 60 min): no apparent stereoselectivity
- EF of PCB 149 after 30 min biotransformation by rat liver microsomes ([4]; 30 min): 0.46
- Yield of 5-OH-PCB metabolite in rat liver microsomal studies [4]: 2.6%
